Tests used:
[1] = tested on: Respiratory syncytial virus recombinant with luciferase (RSV-Luc5) in NHBE cells; test: NHBE RSV-Luc5 384-well Assay (RSV FLUC NHBE 384 V2, Ex. W); assay type: cell-based; details: human respiratory syncytial virus, 72 h, read-out: EC50 RSV FLUC NHBE 384 V2 (per Ex. W)
Text: Example W: NHBE RSV-Luc5 384-well Assay (EC50 RSVFLUC NHBE-384)
Normal Human Bronchial Epithelial (NHBE) cells were purchased from Lonza (Walkersville, MD Cat #CC2540) and maintained in BEGM Bronchial Epithelial Cell Growth Medium BulletKit (Lonza CC-3170).
Cells were thawed, expanded, and were used for experiments at passage 2. Respiratory syncytial virus recombinant with luciferase (RSV-Luc5) (≥1×10^7 Infectious Units/mL (IU/mL) determined by TCID50) was purchased from Microbiologics (Saint Cloud, MN). Viral replication was determined in NHBE cells in the following manner.
(§1) Compounds are prepared in 100% DMSO in 384-well polypropylene plates (Greiner, Monroe, NC, Cat #784201) with 8 compounds per plate in grouped replicates of 4 at 10 serially diluted concentrations (1:3). The serially diluted compounds were transferred to low dead volume Echo plates (Labcyte, Sunnyvale, CA, Cat #LP-0200).
The test compounds were spotted to 384-well assay plates (Greiner, Monroe, NC, Cat#781091) at 200 nL per well using an Echo acoustic dispenser (Labcyte, Sunnyvale, CA). NHBE cells were harvested and suspended in BEGM Bronchial Epithelial Cell Growth Medium BulletKit and seeded to the pre-spotted assay plates at 5,000 cells per well in 30 μL. RSV-Luc5 virus was diluted in BEGM Bronchial Epithelial Cell Growth Medium BulletKit at 500,000 Infectious Units (IU) per mL and 10 μL per well was added to the assay plates containing cells and compounds, for an MOI of 1. The assay plates were incubated for 3 days at 37° C. and 5% CO2. At the end of incubation, One-Glo reagent (Promega, Madison, WI, Cat #E6120) was prepared. The assay plates and One-Glo reagent were equilibrated to room temperature for at least 15 minutes. 40 μL per well of One-Glo reagent was added and the plates were incubated at room temperature for 15 minutes before reading the luminescence signal on an EnVision multimode plate reader (Perkin Elmer, Waltham, MA). Remdesivir was used as positive control and DMSO was used as negative control. Values were normalized to the positive and negative controls (as 0% and 100% replication, respectively) and data was fitted using non-linear regression analysis by Gilead's dose response tool. The EC50 value for each compound was defined as the concentration reducing the viral replication by 50%.

[2] = GI S9 stability (Ex. Z), dog intestinal S9; assay type: in vitro ADME; details: pooled intestinal S9 fractions; dog intestinal S9, 1.0 mg/mL protein, 2 μM substrate, pH 7.4; read-out: GIS9 DOG T½ (per Ex. Z)
Protocol: (§2) Example Z: GI S9 stability data:
(§3) Stock solutions of test compounds in dimethyl sulfoxide (DMSO) having a final concentration of 10 mM were prepared and used in all experiments. Sekisui XenoTech (Kansas City, KS) provided pooled intestinal S9 fractions. All other chemicals were purchased from Sigma-Aldrich (St. Louis, MO) or VWR (West Chester, PA). Internal Standard/Quench (IS/Q) used to stop reactions was 100 nM labetalol in (by volume) methanol (10%) and acetonitrile (90%).
(§4) Stability in Intestinal S9 Fractions: Duplicate aliquots of test compound or positive control substrate were added to S9 stock diluted with phosphate buffered saline (137 mM NaCl, 2.7 mM KCl, 10 mM phosphate buffer), pH 7.4, to obtain a protein concentration of 1.0 mg/mL. The metabolic reactions were initiated by the addition of the substrates to the S9 reaction mixture to a final concentration of 2 μM. At 0, 10, 20, 30, 60 and 120 min, 25 μL aliquots of the reaction mixture were transferred to plates containing 225 μl of IS/Q solution. After quenching, the plates were centrifuged at 3000×g for 30 minutes. 150 μL aliquots of each supernatant were dried down then reconstituted with 300 μL water. Aliquots (10 μL) of the prepared samples were analyzed on a Thermo Q-Exactive mass spectrometer as described below.
(§5) Liquid Chromatography—Mass Spectrometry: Quantification of test compounds and control substrate was performed by analyte/internal standard peak area ratio (PAR) values measured on a Thermo Q-Exactive mass spectrometer coupled to a Dionex UltiMate 3000 HPLC with a Leap Technologies HTC PAL autosampler. The column used for analysis was a Waters Acquity BEH C18 (1.7 μm particle size, 2.1×50 mm). Mobile phase A consisted of 0.1% (v/v) formic acid in water. Mobile phase B consisted of 0.1% (v/v) formic acid in acetonitrile. Elution of analytes was achieved by a series of linear gradients varying the proportions of A and B. The mass spectrometer was calibrated on a weekly basis and mass tolerance of 5 ppm was used.
(§6) Metabolic stabilities in S9 fractions were determined by measuring the rates of disappearance of test compound and positive control substrate.
(§7) Data (% of substrate remaining) were plotted on a semi-log scale and fitted using an exponential decline model:
(§8) Where Ct—% of substrate remaining at time=t; C0—% of substrate remaining at time=0; t—time; T½—half-life The Half-life (T½) is determined by the following equation: […]
(§9) Assuming a first-order reaction, the slope (k) is extrapolated from the aforementioned plotted data.

[3] = GI S9 stability (Ex. Z), rat intestinal S9; assay type: in vitro ADME; details: pooled intestinal S9 fractions; rat intestinal S9, 1.0 mg/mL protein, 2 μM substrate, pH 7.4; read-out: GIS9 Rat T½ (per Ex. Z)
Protocol: as §2, §3, §4, §5, §6, §7, §8, §9

[4] = GI S9 stability (Ex. Z), cyno intestinal S9; assay type: in vitro ADME; details: cynomolgus monkey, pooled intestinal S9 fractions; cyno intestinal S9, 1.0 mg/mL protein, 2 μM substrate, pH 7.4; read-out: GIS9 Cyno T½ (per Ex. Z)
Protocol: as §2, §3, §4, §5, §6, §7, §8, §9

[5] = tested on: Respiratory syncytial virus recombinant with luciferase (RSV-Luc5) in HEp-2 cells; test: HEp-2 RSV-Luc5 384-well Assay (EC50 RSVFLUC Hep2-384 v2, Ex. V); assay type: cell-based; details: human respiratory syncytial virus, HEp-2, 72 h, read-out: EC50 RSV FLuc Hep-2 384 V2 (per Ex. V)
Text: Example V: HEp-2 RSV-Luc5 384-well Assay (EC50 RSVFLUC Hep2-384 v2)
HEp-2 cell line was purchased from ATCC (Manassas, VA Cat #CCL-23) and maintained in Dulbecco's […] (DMEM) (Corning, New York, NY, Cat #15-018CM) supplemented with 10% fetal bovine serum (FBS) (Hyclone, Logan, UT, Cat #SH30071-03) and 1× Penicillin-Streptonycin-L-Glutamine (Corning, New York, NY, Cat #30-009-CI). Cells were passaged 2 times per week to maintain sub-confluent densities and were used for experiments at passage 5-20. Respiratory syncytial virus recombinant with luciferase (RSV-Luc5) (≥1 ×107 TCID50/ml) was purchased from Microbiologics (Saint Cloud, MN). Viral replication was determined in HEp-2 cells in the following manner.
as §1
The test compounds were spotted to 384-well assay plates (Greiner, Monroe, NC, Cat#781091) at 200 nL per well. HEp-2 cells were harvested and suspended in DMEM (supplemented with 10% FBS and 1× Penicillin-Streptonycin-L-Glutamine) and seeded to the pre-spotted assay plates at 4,000 cells per well in 30 μL. RSV-Luc5 viruses were diluted in DMEM (supplemented with 10% FBS and 1× Penicillin-Streptomycin-L-Glutamine) at 200,000 Infectious Units (IU) per mL and 10 μL per well was added to the assay plates containing cells and compounds, for an MOI=0.5. The assay plates were incubated for 3 days at 37° C. and 5% CO2. At the end of incubation, One-Glo reagent (Promega, Madison, WI, Cat #E6120) was prepared. The assay plates and One-Glo reagent were equilibrated to room temperature for at least 15 minutes. 40 μL per well of One-Glo reagent was added and the plates were incubated at room temp for 15 minutes before reading the luminescence signal on an EnVision multimode plate reader (Perkin Elmer, Waltham, MA). Remdesivir was used as positive control and DMSO was used as negative control. Values were normalized to the positive and negative controls (as 0% and 100% replication, respectively) and data was fitted using non-linear regression analysis by Gilead's dose response tool. The EC50 value for each compound was then determined as the concentration reducing the viral replication by 50%.

Compound	EC50 [1] [µM]	half-life at 2 μM [2] [min]	half-life at 2 μM [3] [min]	half-life at 2 μM [4] [min]	EC50 [5] [µM]
CC(C)C(=O)Nc1ncnn2c([C@@H]3O[C@](C#N)(COC(=O)C(C)C)[C@@H](OC(=O)C(C)C)[C@H]3OC(=O)C(C)C)ccc12 [Compound 21, (2R,3S,4S,5S)-2-cyano-5-(4-isobutyramidopyrrolo[2,1-f][1,2,4]triazin-7-yl)-2-((isobutyryloxy)methyl)tetrahydrofuran-3,4-diyl bis(2-methylpropanoate)]	9.08	5	1	4	–
CC(=O)Nc1ncnn2c([C@@H]3O[C@](C#N)(COC(C)=O)[C@@H](O)[C@H]3O)ccc12 [Compound 31]	50	–	–	–	50

Source: patent US20240199676A1, “ANTIVIRAL COMPOUNDS AND METHODS OF MAKING AND USING THE SAME” (Gilead Sciences, Inc., priority 2022, published 2024)
